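Cells were grown in 96-well plates and exposed to each compound for 48 hours at five concentrations; endpoints were interpolated linearly between bracketing concentrations, or set to the highest concentration if not reached. At the GI50, growth is halved.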 Active and inactive are the calls of the source. Rule as the data show it: active = GI50 up to about 1.1 µM and inactive = higher.
Columns and labels:
Assay in all cases: NCI anticancer screen, dose series, 48 h
DMS-273 = tested on: DMS-273
KM-20L2 = tested on: KM-20L2
SNB-78 = tested on: SNB-78
HOP-92 = tested on: HOP-92
OVCAR-3 = tested on: OVCAR-3
SNB-75 = tested on: SNB-75
KM12 = tested on: KM12
U-251 = tested on: U-251
UACC-62 = tested on: UACC-62
SW-620 = tested on: SW-620
Malme-3M = tested on: Malme-3M
RPMI-8226 = tested on: RPMI-8226
SK-MEL-2 = tested on: SK-MEL-2
SF-295 = tested on: SF-295
DMS-114 = tested on: DMS-114
K562 = tested on: K562
HOP-62 = tested on: HOP-62
XF498 = tested on: XF498
A498 = tested on: A498
HT-29 = tested on: HT-29
SN12C = tested on: SN12C
SK-MEL-5 = tested on: SK-MEL-5
NCI-H226 = tested on: NCI-H226
NCI-H460 = tested on: NCI-H460
HCC 2998 = tested on: HCC 2998
EKVX = tested on: EKVX
SK-OV-3 = tested on: SK-OV-3
LXFL 529 = tested on: LXFL 529
OVCAR-4 = tested on: OVCAR-4
RXF 631 = tested on: RXF 631
COLO 205 = tested on: COLO 205
IGROV-1 = tested on: IGROV-1
OVCAR-5 = tested on: OVCAR-5
MOLT-4 = tested on: MOLT-4
SNB-19 = tested on: SNB-19
HCT-116 = tested on: HCT-116
DLD-1 = tested on: DLD-1
OVCAR-8 = tested on: OVCAR-8
SF-539 = tested on: SF-539
786-0 = tested on: 786-0
HL-60 = tested on: HL-60
HCT-15 = tested on: HCT-15
HOP-18 = tested on: HOP-18
CCRF-CEM = tested on: CCRF-CEM
UO-31 = tested on: UO-31
RXF 393 = tested on: RXF 393
A549 = tested on: A549
CAKI-1 = tested on: CAKI-1
NCI-H23 = tested on: NCI-H23
ACHN = tested on: ACHN
M19-MEL = tested on: M19-MEL
LOX IMVI = tested on: LOX IMVI
TK-10 = tested on: TK-10
M14 = tested on: M14
UACC-257 = tested on: UACC-257
SF-268 = tested on: SF-268
SK-MEL-28 = tested on: SK-MEL-28

In the case of `CSc1nc(NC2OCC(OC(C)=O)C(OC(C)=O)C2OC(C)=O)c(/N=C(\C)C(C)=O)c(=O)n1C` (stereo not given), the GI50 (DMS-273) is reported as > 100 µM (inactive), the GI50 (KM-20L2) is reported as > 100 µM (inactive) and the GI50 (SNB-78) is reported as > 100 µM (inactive). For the same compound, the GI50 (HOP-92) was > 100 µM (inactive), the GI50 (OVCAR-3) was > 100 µM (inactive) and the GI50 (SNB-75) was > 100 µM (inactive). The GI50 (KM12) was > 100 µM (inactive), the GI50 (U-251) was > 100 µM (inactive) and the GI50 (UACC-62) was > 100 µM (inactive). The GI50 (SW-620) was > 100 µM (inactive), the GI50 (Malme-3M) was > 100 µM (inactive) and the GI50 (RPMI-8226) was > 100 µM (inactive). The GI50 (SK-MEL-2) was > 100 µM (inactive), the GI50 (SF-295) was > 100 µM (inactive) and the GI50 (DMS-114) was > 100 µM (inactive). For the same compound, the GI50 (K562) was > 100 µM (inactive), the GI50 (HOP-62) was > 100 µM (inactive) and the GI50 (XF498) was > 100 µM (inactive). The GI50 (A498) was > 100 µM (inactive), the GI50 (HT-29) was > 100 µM (inactive) and the GI50 (SN12C) was > 100 µM (inactive). For the same compound, the GI50 (SK-MEL-5) was > 100 µM (inactive), the GI50 (NCI-H226) was > 100 µM (inactive) and the GI50 (NCI-H460) was > 100 µM (inactive). The GI50 (HCC 2998) was > 100 µM (inactive), the GI50 (EKVX) was > 100 µM (inactive) and the GI50 (SK-OV-3) was > 100 µM (inactive). For the same compound, the GI50 (LXFL 529) was > 100 µM (inactive), the GI50 (OVCAR-4) was > 100 µM (inactive) and the GI50 (RXF 631) was > 100 µM (inactive). The GI50 (COLO 205) was > 100 µM (inactive), the GI50 (IGROV-1) was > 100 µM (inactive) and the GI50 (OVCAR-5) was > 100 µM (inactive). For the same compound, the GI50 (MOLT-4) was > 100 µM (inactive), the GI50 (SNB-19) was > 100 µM (inactive) and the GI50 (HCT-116) was > 100 µM (inactive). The GI50 (DLD-1) was > 100 µM (inactive), the GI50 (OVCAR-8) was > 100 µM (inactive) and the GI50 (SF-539) was > 100 µM (inactive). The GI50 (786-0) was > 100 µM (inactive), the GI50 (HL-60) was > 100 µM (inactive) and the GI50 (HCT-15) was over 100 µM. The GI50 (HOP-18) was > 100 µM (inactive), the GI50 (CCRF-CEM) was > 100 µM (inactive) and the GI50 (UO-31) was > 100 µM (inactive). For the same compound, the GI50 (RXF 393) was > 100 µM (inactive), the GI50 (A549) was > 100 µM (inactive) and the GI50 (CAKI-1) was > 100 µM (inactive). For the same compound, the GI50 (NCI-H23) was > 100 µM (inactive), the GI50 (ACHN) was > 100 µM (inactive) and the GI50 (M19-MEL) was > 100 µM (inactive). For the same compound, the GI50 (LOX IMVI) was > 100 µM (inactive), the GI50 (TK-10) was > 100 µM (inactive) and the GI50 (M14) was > 100 µM (inactive). The GI50 (UACC-257) was > 100 µM (inactive).

For `O=C(CC1SC(Nc2ccccc2Cl)=NC1=O)Nc1ccc(Cl)cc1Cl` (stereo not given), the GI50 (KM-20L2) was > 100 µM (inactive), the GI50 (SNB-78) was > 100 µM (inactive) and the GI50 (HOP-92) was > 100 µM (inactive). The GI50 (OVCAR-3) was > 100 µM (inactive), the GI50 (SNB-75) was > 100 µM (inactive) and the GI50 (KM12) was > 100 µM (inactive). For the same compound, the GI50 (U-251) was > 100 µM (inactive), the GI50 (UACC-62) was > 100 µM (inactive) and the GI50 (SW-620) was > 100 µM (inactive). For the same compound, the GI50 (Malme-3M) was > 100 µM (inactive), the GI50 (RPMI-8226) was 54 µM (inactive) and the GI50 (SK-MEL-2) was 81.1 µM (inactive). For the same compound, the GI50 (SF-295) was > 100 µM (inactive), the GI50 (DMS-114) was 78.2 µM (inactive) and the GI50 (HOP-62) was > 100 µM (inactive). The GI50 (XF498) was > 100 µM (inactive), the GI50 (HT-29) was > 100 µM (inactive) and the GI50 (SN12C) was > 100 µM (inactive). For the same compound, the GI50 (SF-268) was > 100 µM (inactive), the GI50 (SK-MEL-5) was > 100 µM (inactive) and the GI50 (NCI-H226) was > 100 µM (inactive). For the same compound, the GI50 (NCI-H460) was > 100 µM (inactive), the GI50 (HCC 2998) was > 100 µM (inactive) and the GI50 (EKVX) was > 100 µM (inactive). For the same compound, the GI50 (LXFL 529) was > 100 µM (inactive), the GI50 (OVCAR-4) was > 100 µM (inactive) and the GI50 (RXF 631) was > 100 µM (inactive). For the same compound, the GI50 (COLO 205) was > 100 µM (inactive), the GI50 (IGROV-1) was > 100 µM (inactive) and the GI50 (OVCAR-5) was > 100 µM (inactive). For the same compound, the GI50 (MOLT-4) was > 100 µM (inactive), the GI50 (SNB-19) was > 100 µM (inactive) and the GI50 (HCT-116) was > 100 µM (inactive). The GI50 (DLD-1) was > 100 µM (inactive), the GI50 (OVCAR-8) was > 100 µM (inactive) and the GI50 (786-0) was > 100 µM (inactive). For the same compound, the GI50 (HL-60) was > 100 µM (inactive), the GI50 (HOP-18) was > 100 µM (inactive) and the GI50 (CCRF-CEM) was > 100 µM (inactive). The GI50 (UO-31) was > 100 µM (inactive), the GI50 (RXF 393) was > 100 µM (inactive) and the GI50 (A549) was > 100 µM (inactive). For the same compound, the GI50 (NCI-H23) was > 100 µM (inactive), the GI50 (SK-MEL-28) was > 100 µM (inactive) and the GI50 (ACHN) was > 100 µM (inactive). For the same compound, the GI50 (M19-MEL) was > 100 µM (inactive), the GI50 (LOX IMVI) was > 100 µM (inactive) and the GI50 (TK-10) was > 100 µM (inactive). For the same compound, the GI50 (M14) was > 100 µM (inactive) and the GI50 (UACC-257) was > 100 µM (inactive).

— ChEMBL document CHEMBL1201862, “PubChem BioAssay data set” (2004)
